Measurements taken from patent US8658668B2, “PI3 kinase/mTOR dual inhibitor” (Eli Lilly and Company, priority 2011, dated 2014).
pIC50: −log10 of the molar value.

Assays:
[1] = tested on: MEXF 462 human tumor xenograft cells; assay: Oncotest tumor clonogenic assay, MEXF 462; type: cell-based; conditions: colony formation, Melanoma MEXF 462, amelanotic melanoma, md, read-out: Absolute IC50
[2] = tested on: p110α(E545K)/myc leukemic cells; assay: E545Kp110a leukemia model; type: in vivo, mouse; conditions: oral gavage, day 5 through day 11, blood on day 12
Description: Leukemia cell line creation: Transduce embryonic liver cells derived from transgenic embryos, B6.Cg-Tg[IghMyc]22Bri/J (Jackson Laboratory, Bar Harbor, Me.), with a retrovirus expressing a clinically-isolated activating mutation of human p110α (E545K as an amino acid change, G1633A on the nucleotide level) under control of the viral 5′ LTR (long terminal repeat) and expressing GFP (green fluorescent protein) under control of the PGK promoter (MSCV6 FLAG-p110α G1633A PGK/GFP) to create target-driven leukemia cells. Transfer the transduced cells into a lethally irradiated host animal. The transduced cells repopulate the hematopoietic stem cells among bone marrow of the recipient and rescue the recipient animal from radiation-induced lethality due to ablation of the recipient's original bone marrow. Observe the rescued primary animals for development of leukemia via weekly monitoring white blood cell counts in a small amount of blood (10 μL) collected retro-orbitally. Collect blood from primary irradiated animals with confirmed leukemia and serially passage to secondary (non-irradiated) host animals in order to establish as a leukemic cell line.
Subject Animals: Use female C57BL/6 mice (Taconic, Cambridge City, Ind.), 8 to 10 week old and 20 to 22 g in weight, as leukemia recipient animals. Acclimate animals on normal low fat diet (4.5%) prior to inoculation and continue on that diet ad libitum for the duration of the study. Identify individual mice from each group by ear punches. Inoculate animals with leukemic cells from donor animals (day 0).
Syngeneic leukemia model: From a donor animal previously inoculated with the leukemic cell line of interest, collect a small amount of blood retro-orbitally (10 μL) and measure the leukemia cell burden by white blood cell count. From animals with sufficient leukemic burden, collect donor blood, dilute with phosphate-buffered saline (PBS) to 500,000 white blood cells per 200 μL and inject 200 μL per animal retro-orbitally on day 0 to initiate leukemia. […]

[3] = tested on: HNXF 908 human tumor xenograft cells; assay: Oncotest tumor clonogenic assay, HNXF 908; type: cell-based; conditions: colony formation, Head and Neck HNXF 908, squamous epithelium carcinoma, md, read-out: Absolute IC50
[4] = Pharmacokinetic properties in dogs; type: in vivo, dog; conditions: for AUC: both sexes, beagle, dog, plasma, oral gavage, HEC suspension
Method: The range of administered doses is between 1 and 12 mg/kg in an HEC suspension.
Blood samples are collected into tubes containing potassium ethylenediaminetetraacetic acid from each dog at 0 (pre-dose), 0.5, 1, 2, 4, 8, and 24 hours post dose. Some studies also include samples collected at 0.25 hr and 12 hr time points. These samples are centrifuged to obtain plasma, which is subsequently frozen prior to analysis. […] The standard curves range from 1 to 5000 ng/mL. Plasma concentrations above the upper limit of quantitation are determined by dilution.

[5] = tested on: PXF 1752 human tumor xenograft cells; assay: Oncotest tumor clonogenic assay, PXF 1752; type: cell-based; conditions: colony formation, Pleuramesothelioma PXF 1752, pleuramesothelioma, read-out: Absolute IC50
[6] = tested on: CXF 676 human tumor xenograft cells; assay: Oncotest tumor clonogenic assay, CXF 676; type: cell-based; conditions: colony formation, Colon CXF 676, adeno carcinoma, md, read-out: Absolute IC50
[7] = tested on: OVXF 899 human tumor xenograft cells; assay: Oncotest tumor clonogenic assay, OVXF 899; type: cell-based; conditions: colony formation, Ovary OVXF 899, pap. serous adeno carcinoma, md, read-out: Absolute IC50

pIC50 [1]: 6.81
pIC50 [3]: 7.28
AUC ([4]; 1 mg/kg, 10 animals): 1160 ng·h/mL
AUC ([4]; 3 mg/kg, 10 animals): 3780 ng·h/mL
AUC ([4]; 4.5 mg/kg, 2 animals): 5920 ng·h/mL
AUC ([4]; 6 mg/kg, 2 animals): 9620 ng·h/mL
AUC ([4]; 9 mg/kg, 2 animals): 10800 ng·h/mL
AUC ([4]; 12 mg/kg, 2 animals): 19200 ng·h/mL
correlation of determination R^2, linear regression of the mean AUC values for each dose ([4]; oral, 1 to 12 mg/kg): 0.96
pIC50 [5]: 7.49
pIC50 [6]: 6.46
pIC50 [7]: 6.23
SMILES: CO[C@@H](C)Cn1c(=O)n(C)c2cnc3ccc(-c4cncc(C(C)(C)O)c4)cc3c21 [Example 1, 8-[5-(1-Hydroxy-1-methylethyl)pyridin-3-yl]-1-[(2S)-2-methoxypropyl]-3-methyl-1,3-dihydro-2H-imidazo[4,5-c]quinolin-2-one]
% TGI ([2]; 5 mg/kg qd): 50.5%
% TGI ([2]; 10 mg/kg qd): 76.1%
% TGI ([2]; 20 mg/kg qd): 90.1%
